Literature values as cited in publication PMC10215804, “Exploring Alternative Pathways to Target Bacterial Type II Topoisomerases Using NBTI Antibacterials: Beyond Halogen-Bonding Interactions” (Antibiotics, 2023).
In brackets after ≈: the same amount, converted by molar mass.

Experiments:
E. coli ESBL QA-11.3 = test system: E. coli ESBL QA-11.3; parameters: method as in PMID 35970069; conditions: cited from earlier work
E. faecalis RDK 057 = conditions: cited from earlier work
S. aureus DNA gyrase = target: T1, S. aureus DNA gyrase (Staphylococcus aureus, UniProt P20831); conditions: supercoiling inhibition; cited from earlier work
T1 construct: purchased Inspiralis (Norwich, UK)
T1 sequence (P20831 whole entry): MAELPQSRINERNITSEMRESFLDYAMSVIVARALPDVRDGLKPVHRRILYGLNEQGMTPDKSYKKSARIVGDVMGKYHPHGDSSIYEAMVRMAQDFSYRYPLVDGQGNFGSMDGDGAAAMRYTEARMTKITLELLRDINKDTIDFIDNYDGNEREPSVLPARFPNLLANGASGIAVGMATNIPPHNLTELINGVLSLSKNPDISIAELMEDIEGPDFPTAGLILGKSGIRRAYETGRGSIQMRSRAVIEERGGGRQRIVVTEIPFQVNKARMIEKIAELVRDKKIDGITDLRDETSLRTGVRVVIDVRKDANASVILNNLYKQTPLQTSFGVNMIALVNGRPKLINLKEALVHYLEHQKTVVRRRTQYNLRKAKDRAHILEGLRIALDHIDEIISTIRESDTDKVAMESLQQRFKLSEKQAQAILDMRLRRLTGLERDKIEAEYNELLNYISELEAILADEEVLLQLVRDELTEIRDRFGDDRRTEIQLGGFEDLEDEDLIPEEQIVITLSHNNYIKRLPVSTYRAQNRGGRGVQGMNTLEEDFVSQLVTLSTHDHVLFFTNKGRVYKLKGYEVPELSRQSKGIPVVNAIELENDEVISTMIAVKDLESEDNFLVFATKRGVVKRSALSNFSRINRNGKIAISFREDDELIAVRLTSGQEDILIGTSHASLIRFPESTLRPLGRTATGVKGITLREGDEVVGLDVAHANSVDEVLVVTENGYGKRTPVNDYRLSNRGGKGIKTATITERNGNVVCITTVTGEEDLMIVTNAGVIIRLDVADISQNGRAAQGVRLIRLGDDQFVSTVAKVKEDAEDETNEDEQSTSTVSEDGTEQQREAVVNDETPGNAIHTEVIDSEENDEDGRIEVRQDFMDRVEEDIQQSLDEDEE
T1 sequence (P0A0K8 whole entry partner): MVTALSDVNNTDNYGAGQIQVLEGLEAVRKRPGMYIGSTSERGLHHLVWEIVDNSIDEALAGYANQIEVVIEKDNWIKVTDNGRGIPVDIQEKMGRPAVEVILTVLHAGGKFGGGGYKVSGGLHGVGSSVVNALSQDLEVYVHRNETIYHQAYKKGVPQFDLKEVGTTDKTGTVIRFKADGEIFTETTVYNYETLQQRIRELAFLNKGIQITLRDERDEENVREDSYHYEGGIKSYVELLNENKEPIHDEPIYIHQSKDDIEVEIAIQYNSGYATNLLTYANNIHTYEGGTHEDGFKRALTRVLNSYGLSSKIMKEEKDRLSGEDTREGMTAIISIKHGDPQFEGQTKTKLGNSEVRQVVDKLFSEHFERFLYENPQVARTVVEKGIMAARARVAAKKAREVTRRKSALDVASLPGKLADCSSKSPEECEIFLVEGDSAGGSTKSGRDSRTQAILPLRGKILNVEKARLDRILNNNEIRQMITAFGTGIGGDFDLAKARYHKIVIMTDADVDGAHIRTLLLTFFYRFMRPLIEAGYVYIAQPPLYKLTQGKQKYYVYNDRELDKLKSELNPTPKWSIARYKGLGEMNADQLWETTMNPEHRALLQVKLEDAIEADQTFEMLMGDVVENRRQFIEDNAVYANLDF

E. coli (ATCC 25922) = conditions: cited from earlier work
MRSA(QA-12.1) = test system: MRSA(QA-12.1); parameters: method as in PMID 35970069; conditions: cited from earlier work
A. baumannii = test system: A. baumannii; parameters: method as in PMID 35970069; conditions: cited from earlier work
E. coli topoIV = target: T2, E. coli topoIV (Escherichia coli, UniProt P0AFI2); conditions: relaxation inhibition; cited from earlier work
T2 construct: purchased Inspiralis (Norwich, UK)
T2 sequence (P20083 whole entry): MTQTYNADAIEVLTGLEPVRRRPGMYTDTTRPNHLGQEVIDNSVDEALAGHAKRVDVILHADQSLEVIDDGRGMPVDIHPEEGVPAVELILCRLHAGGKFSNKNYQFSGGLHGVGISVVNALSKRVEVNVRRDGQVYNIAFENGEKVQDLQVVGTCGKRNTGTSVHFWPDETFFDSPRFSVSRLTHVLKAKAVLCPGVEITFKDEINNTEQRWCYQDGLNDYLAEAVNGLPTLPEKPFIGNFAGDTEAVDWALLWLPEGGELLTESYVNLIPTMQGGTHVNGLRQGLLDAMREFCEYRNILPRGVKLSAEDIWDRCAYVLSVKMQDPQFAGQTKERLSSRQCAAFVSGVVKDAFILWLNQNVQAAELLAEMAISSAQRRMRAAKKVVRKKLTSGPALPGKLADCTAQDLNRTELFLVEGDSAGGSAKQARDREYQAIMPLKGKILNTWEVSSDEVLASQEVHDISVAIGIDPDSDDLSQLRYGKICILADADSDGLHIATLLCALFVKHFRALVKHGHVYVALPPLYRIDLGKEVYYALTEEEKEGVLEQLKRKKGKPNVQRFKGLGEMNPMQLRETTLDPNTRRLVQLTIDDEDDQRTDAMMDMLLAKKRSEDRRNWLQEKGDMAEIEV
T2 sequence (P0AFI2 whole entry): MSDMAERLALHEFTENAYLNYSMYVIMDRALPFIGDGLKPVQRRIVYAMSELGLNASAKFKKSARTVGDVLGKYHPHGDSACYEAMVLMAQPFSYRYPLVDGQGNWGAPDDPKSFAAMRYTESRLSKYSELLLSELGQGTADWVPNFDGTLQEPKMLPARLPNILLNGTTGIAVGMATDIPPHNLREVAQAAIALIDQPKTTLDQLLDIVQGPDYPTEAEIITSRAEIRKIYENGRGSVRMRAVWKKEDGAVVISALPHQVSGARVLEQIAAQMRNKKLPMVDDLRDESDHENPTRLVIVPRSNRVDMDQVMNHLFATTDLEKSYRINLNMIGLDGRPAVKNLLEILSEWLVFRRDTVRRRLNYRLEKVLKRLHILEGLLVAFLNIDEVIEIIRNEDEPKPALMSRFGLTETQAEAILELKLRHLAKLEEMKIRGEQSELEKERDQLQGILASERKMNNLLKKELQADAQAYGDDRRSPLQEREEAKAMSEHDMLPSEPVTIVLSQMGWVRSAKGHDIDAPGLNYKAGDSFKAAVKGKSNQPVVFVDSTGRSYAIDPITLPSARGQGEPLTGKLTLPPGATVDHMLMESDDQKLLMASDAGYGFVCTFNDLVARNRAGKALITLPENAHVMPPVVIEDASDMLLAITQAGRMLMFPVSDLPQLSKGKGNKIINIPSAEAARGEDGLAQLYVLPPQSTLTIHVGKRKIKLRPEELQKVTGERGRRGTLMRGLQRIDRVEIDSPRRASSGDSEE

E. coli N43 (CGSC# 5583) = conditions: AcrA knockout; cited from earlier work
MRSA (QA-11.7) = conditions: cited from earlier work
S. aureus (ATCC 29213) = conditions: cited from earlier work
E. coli D22 = conditions: lpxC mutation; cited from earlier work
VRE = conditions: cited from earlier work
human topoisomerase IIα = target: T3, human topoisomerase IIα (Homo sapiens, UniProt P11388); conditions: residual activity at 100 µM compound; cited from earlier work
T3 construct: purchased Inspiralis (Norwich, UK)
T3 sequence (P11388 whole entry): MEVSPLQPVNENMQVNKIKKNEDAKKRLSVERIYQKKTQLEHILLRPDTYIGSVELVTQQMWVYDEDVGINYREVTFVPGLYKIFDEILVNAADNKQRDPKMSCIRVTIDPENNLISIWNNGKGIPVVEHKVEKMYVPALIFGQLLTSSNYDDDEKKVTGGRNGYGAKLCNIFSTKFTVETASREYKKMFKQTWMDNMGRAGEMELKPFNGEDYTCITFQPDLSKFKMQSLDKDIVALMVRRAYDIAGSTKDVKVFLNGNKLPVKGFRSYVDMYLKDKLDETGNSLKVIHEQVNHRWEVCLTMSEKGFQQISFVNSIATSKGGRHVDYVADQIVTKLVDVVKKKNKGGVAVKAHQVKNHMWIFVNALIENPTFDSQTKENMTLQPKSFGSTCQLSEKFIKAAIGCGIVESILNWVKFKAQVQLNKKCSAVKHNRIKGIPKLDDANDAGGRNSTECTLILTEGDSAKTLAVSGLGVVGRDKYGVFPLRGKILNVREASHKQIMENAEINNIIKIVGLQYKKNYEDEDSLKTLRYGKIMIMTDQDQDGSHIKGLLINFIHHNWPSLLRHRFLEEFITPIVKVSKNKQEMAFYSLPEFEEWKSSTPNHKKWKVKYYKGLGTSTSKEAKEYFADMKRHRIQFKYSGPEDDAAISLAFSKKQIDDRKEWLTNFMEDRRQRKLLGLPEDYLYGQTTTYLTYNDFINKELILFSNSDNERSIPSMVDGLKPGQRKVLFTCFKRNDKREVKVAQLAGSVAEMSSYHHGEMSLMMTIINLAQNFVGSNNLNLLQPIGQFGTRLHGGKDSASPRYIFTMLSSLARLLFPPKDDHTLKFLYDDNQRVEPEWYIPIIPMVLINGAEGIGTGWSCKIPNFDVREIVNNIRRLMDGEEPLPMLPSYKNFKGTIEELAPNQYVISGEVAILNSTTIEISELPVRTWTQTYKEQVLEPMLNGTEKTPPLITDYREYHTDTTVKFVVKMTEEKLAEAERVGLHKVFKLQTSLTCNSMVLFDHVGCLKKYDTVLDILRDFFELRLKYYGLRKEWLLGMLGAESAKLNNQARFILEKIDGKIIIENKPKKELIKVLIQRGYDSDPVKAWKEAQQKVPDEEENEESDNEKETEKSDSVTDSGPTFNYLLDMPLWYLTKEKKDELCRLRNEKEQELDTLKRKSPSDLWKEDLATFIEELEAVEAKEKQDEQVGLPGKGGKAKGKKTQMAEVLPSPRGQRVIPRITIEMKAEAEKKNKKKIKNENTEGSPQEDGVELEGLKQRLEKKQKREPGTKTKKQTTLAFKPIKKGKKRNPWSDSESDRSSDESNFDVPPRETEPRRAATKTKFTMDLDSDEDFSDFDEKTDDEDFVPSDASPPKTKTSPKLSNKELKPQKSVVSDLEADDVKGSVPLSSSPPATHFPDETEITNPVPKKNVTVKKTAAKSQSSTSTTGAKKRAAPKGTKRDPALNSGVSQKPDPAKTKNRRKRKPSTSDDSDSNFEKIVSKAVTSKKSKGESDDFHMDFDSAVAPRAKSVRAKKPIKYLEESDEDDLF

S. aureus topoIV = target: T4, S. aureus topoIV (Staphylococcus aureus, UniProt P0C1U9); conditions: relaxation inhibition; cited from earlier work
T4 construct: purchased Inspiralis (Norwich, UK)

MRSA (QA-11.2) = test system: MRSA (QA-11.2); parameters: method as in PMID 35970069; conditions: cited from earlier work
E. coli DNA gyrase = target: T5, E. coli DNA gyrase (Escherichia coli, UniProt P0AES4); conditions: supercoiling inhibition; cited from earlier work
T5 construct: purchased Inspiralis (Norwich, UK)

K. pneumoniae = test system: K. pneumoniae; parameters: method as in PMID 35970069; conditions: cited from earlier work
P. aeruginosa RDK 184 = conditions: cited from earlier work

SMILES: COc1ccc2nccc(C(O)CC3CC[C@H](NCc4ccc(Br)cc4)CO3)c2n1 (stereo partly drawn) [Compound 4]
- MIC E. coli ESBL QA-11.3 (E. coli ESBL QA-11.3): >128 µg/mL
- MIC E. faecalis RDK 057 (E. faecalis RDK 057): 0.5 µg/mL (≈ 1.06 µM)
- IC50 (S. aureus DNA gyrase): 65 ± 2 nM
- MIC E. coli (ATCC 25922) (E. coli (ATCC 25922)): 16 µg/mL (≈ 33.9 µM)
- MIC MRSA(QA-12.1) (MRSA(QA-12.1)): 0.016 µg/mL (≈ 0.0339 µM)
- MIC A. baumannii (A. baumannii): >128 µg/mL
- IC50 (E. coli topoIV): 52 ± 3 nM
- MIC E. coli N43 (CGSC# 5583) (E. coli N43 (CGSC# 5583)): 0.25 µg/mL (≈ 0.529 µM)
- MIC MRSA (QA-11.7) (MRSA (QA-11.7)): 0.016 µg/mL (≈ 0.0339 µM)
- MIC S. aureus (ATCC 29213) (S. aureus (ATCC 29213)): 0.016 µg/mL (≈ 0.0339 µM)
- MIC E. coli D22 (E. coli D22): 1 µg/mL (≈ 2.12 µM)
- MIC VRE (VRE): 0.032 µg/mL (≈ 0.0677 µM)
- Human TopoIIα (% RA at 100 µM) (human topoisomerase IIα): 106 ± 0%
- IC50 (S. aureus topoIV): > 100000 nM
- MIC MRSA (QA-11.2) (MRSA (QA-11.2)): 0.031 µg/mL (≈ 0.0656 µM)
- IC50 (E. coli DNA gyrase): 1570 ± 404 nM
- MIC K. pneumoniae (K. pneumoniae): 128 µg/mL (≈ 271 µM)
- MIC P. aeruginosa RDK 184 (P. aeruginosa RDK 184): 128 µg/mL (≈ 271 µM)
